# Assay results from patent publication US4876265A, “Process and compositions for controlling mites parasitizing on honey bees” (priority 1983, dated 1989).
# Tests used:
# Acarapis woodi [1] = assay: Honey-bee colonies in northeastern Mexico, parasite load; assay type: in vivo; conditions: 0.3 mg/ml in syrup, three times weekly, P<0.05
# Experimental: (§1) Three groups of honey-bee colonies (N=30) located in northeastern Mexico are selected on the basis of the prevalence of Acarapis woodi parasitizing their workers. Lightly (≤10%), moderately (20-60%), and heavily (90-100%) infested colonies are randomly assigned to control or treated subgroups (N=15). Controls receive 50% sucrose syrup, and treated colonies receive syrup medicated with 0.3 mg/ml 2-(2,4-dimethylphenylimino)-3-methyl-4-thiazoline-hydrochloride, small, medium, and large colonies receive 300, 600, and 1000 ml of syrup, respectively. Syrup is fed three times at weekly intervals.
# Acarapis woodi [2] = assay: Package bee colonies infested with Acarapis woodi, mite survival; assay type: in vivo
# Experimental: (§2) Forty-two packages of honey bees (2 lbs.~907 g) are obtained from 22 colonies infested with Acarapis woodi. Infestations range from 60 to 100%. Each package is provided with a mated queen and 550 ml of treated or untreated 50% (wt/wt) sucrose syrup. All treated colonies receive syrup containing either 0.5 mg/ml (group B) or 1.0 mg/ml (group C) of 2-(2,4-dimethylphenylimino)-3-methyl-4-thiazoline hydrochloride. The control (group A) consists of 10 packages of bees and the treatment groups B and C of 16 packages each.
# (§3) After installation on frames free of nectar and pollen, package colonies are examined at weekly intervals to determine food consumption, brood production and bee mortality. Random samples of ten bees/colony are examined on days 5, 12, 19, 26, 33 and 40. On day 0 and 5 bees are examined. Dissections and live mite determinations are made according to Eischen et al. (Am. Bee J. 127: 99-101, 1987).
# honey-bee colonies = assay: Honey-bee colonies in northeastern Mexico, bee population; assay type: in vivo; conditions: end of the test; P<0.05
# Experimental: as §1
# honey bees = assay: Package bee colonies, brood production and food consumption; assay type: in vivo, honey bee; conditions: 0.5 mg/ml and 1.0 mg/ml; more pronounced at the higher concentration
# Experimental: as §2, §3
# Varroa jacobsoni [3] = assay: Comparative test, lethal dosage for varroa mites; assay type: in vivo; conditions: for LD50 in μg active ingredient/bee: oral, 10 μl sucrose suspension
# Text: Compounds (I), (A) and (B) are formulated in accordance with Example F-1.
# The age distribution of the bees in the test group is identical with that in a normal hive. The bees used in the laboratory tests originate from colonies only slightly infested with nosema. All groups of bees are infected with varroatosis (Varroa jacobsoni). To test the tolerance by the bees and the acaricidal activity in the group, 40 bees from the same colony are placed with their brood in each cage. To achieve a better control, each cage is fitted with a pane of glass. A small piece of honeycomb (6×8 cm) is attached at the top of each cage to pacify the bees. During the test period, the bees are kept in a climatic chamber at 25° C. and 85% relative humidity. These conditions are chosen because they are maximally acceptable both for the mites and the bees: the parasitizing mites are least affected and the bees live sufficiently long. To test the systemic activity of the active substance, 4 bees--within a group of 40 bees--are each individually fed with 10 μl of a suspension of the active substance in a 50% aqueous solution of sucrose. The bees have not been fed for at least one hour so that feed with a higher dose can be more readily ingested. 3 to 4 doses are tested in each of 2 groups. In each test series, 2 groups are left untreated as controls.
# 24 and 48 hours after treatment, the activity on varroa mites is determined on the basis of mite mortality. For this purpose a tray (mesh width=2.4 mm) is fixed above the floor of each of the test cages. The mites which have dropped off the bees can thus be collected on paper which had been placed under the tray. 72 hours after treatment, the bees are sacrificed and then washed in benzine to determine the number of mites which have remained on them (method of determining the number of remaining mites according to Ritter, Apidologie, 1980, 11(2), 131-141).
# Percentage mite mortality can be determined from the number of mites which have remained on the bees and the number which have dropped off. Using the Probit analysis (Cavalli-Sforza, Biometrie, G. Frischer Verlag, Stuttgart), the LD50 can be determined from the dosage-mortality curve.
# Varroa jacobsoni [4] = conditions: Thailand, 10 colonies each, four products; manufacturers' dose rates for Varroa-mite-treatment; cited from earlier work
# varroa mites [5] = assay: Feeding method in the laboratory, varroa mite mortality; assay type: in vivo; conditions: 7 days
# Experimental: Thirty bees infested with varroa mites are each individually fed with 10 μl of a sugar-containing solution of 2-(2,4-dimethylphenylimino)-3-methylthiazoline. […] After being fed, the bees are kept in groups each of 10 for 7 days in cages. The mites which in the course of the test have fallen off dead are collected in trays placed under the individual cages. The bees are subsequently killed and are examined for remaining mites. The counting of the mites that have fallen down and those remaining on the bees is carried out after 7 days.
# Tropilaelaps clareae = conditions: Thailand, 10 colonies each, four products; dose rates proposed for Varroa-mite-treatment; cited from earlier work
# bees [6] = assay: Wetting method in the beehive, bees killed (tolerability); assay type: in vivo, honey bee
# Experimental: (§4) Six brood-less nuclei [small, manmade colonies of bees with usually 1000 to perhaps 5000 bees; see Morse and Hooper (1985), supra, Nucleus colony, p. 279] infested with varroa mites are treated three times, at intervals of 4 days, with a 0.5% aqueous solution of 2-(2,4-dimethylphenylimino)-3-methylthiazoline. The active substance is dissolved in the form of a concentrate formulation in water. 5 ml of the active substance solution are dropped onto a number of bees present in the bee ways of a beehive. The test is terminated 4 days after the last treatment, that is after a duration of 12 days. The mites and bees which have died in the course of the test are collected on a bottom tray covered with gauze, which has been inserted under the combs before commencement of the test. At the end of the test, the bees are killed, and the mites remaining on them are washed out in benzine and counted. For the evaluation, the number of dead mites and bees collected during the test is determined, the fact being taken into consideration that for the length of time of the test a natural mortality rate of about 0.5% of bees is to be expected.
# varroa mites [7] = assay: Wetting method in the beehive, mites killed; assay type: in vivo; conditions: 0.5% aqueous solution, 5 ml dropped, three times at 4-day intervals; 12 days
# Experimental: as §4
# bees [8] = assay: Tests under natural conditions, bee mortality rate; assay type: in vivo, honey bee; conditions: overall; in the range of the untreated control group; 30240 min
# Text: 33 brood-less bee colonies (~20,000 bees) infested with varroa mites are divided into three groups and treated with 2-(2,4-dimethylphenylimino)-3-methylthiazoline in solutions of varying concentration, originating in one case from a 15% emulsion concentrate (EC-15) and in the other case from a 15% water-soluble powder (SP-15). In the latter case, the active ingredient I is in the form of a salt (cf. Formulation Examples).
# All three groups A, B and C, each consisting of 11 colonies, receive during the time of treatment the same total amount of active ingredient.
# In the following the applied amounts per bee way are given. Depending on the size of the bee colony, a beehive contains between 5 and 15 bee ways, so that the amount of active ingredient applied is correspondingly adjusted from hive to hive.
# In each case 5 ml of a 4% aqueous solution or emulsion per bee way are sprayed onto a number of selected bees. The remaining bees provide for a uniform distribution of the active ingredient in the colony. The partial wetting procedure is repeated after 7 days and after 14 days (observation period 21 days). […]
# The mites and bees that have died during and after the treatment are collected daily from a bottom tray. 21 days after the first application, the bee colonies are killed and the remaining number of mites is then determined (observation period 21 days).
structure (smiles),measurement,setting,value
"Cc1ccc(N=c2sccn2C)c(C)c1.Cl [2-(2,4-dimethylphenylimino)-3-methyl-4-thiazoline hydrochloride]",parasite load score,"Acarapis woodi [1]; heavily infested (90-100%), control 1.13",0.63
same,parasite load score,"Acarapis woodi [1]; lightly infested (≤10%), control 2.25",0.53
same,parasite load score,"Acarapis woodi [1]; moderately infested (20-60%), control 3.43",0.84
same,time at which efficacy is apparent,Acarapis woodi [2]; 0.5 mg/ml and 1.0 mg/ml in syrup,7 days
same,control of mites,Acarapis woodi [2]; after 26 days,almost complete control of mites
same,Mite survival,"Acarapis woodi [2]; groups B (0.5 mg/ml) and C (1.0 mg/ml) in syrup, after 14 days",less than 1 live mite/trachea
same,live mites found in the tracheae of treated package bees,"Acarapis woodi [2]; groups B (0.5 mg/ml) and C (1.0 mg/ml), after 26 days",no live mites
same,bee population of medicated colonies versus controls,honey-bee colonies,significantly larger bee populations than controls
same,effect on honey bee larvae (spotty brood patterns),honey bees,detrimental to some honey bee larvae as spotty brood patterns are observed in several colonies
CCn1ccsc1=Nc1ccc(C)cc1C [Compound (A)],LD50 in μg active ingredient/bee,Varroa jacobsoni [3]; 24 hours after application,35 μg active ingredient/bee
same,LD50 in μg active ingredient/bee,Varroa jacobsoni [3]; 48 hours after application,35 μg active ingredient/bee
"Cc1ccc(N=c2sccn2C)c(C)c1 [Compound (I), 2-(2,4-dimethylphenylimino)-3-methylthiazoline]",LD50 in μg active ingredient/bee,Varroa jacobsoni [3]; 24 hours after application,17 μg active ingredient/bee
same,LD50 in μg active ingredient/bee,Varroa jacobsoni [3]; 48 hours after application,13 μg active ingredient/bee
same,activity against varroa mites versus compounds (A) and (B),Varroa jacobsoni [3]; varroacidal test,significantly better activity against varroa mites
same,comparative efficacy against Varroa jacobsoni,Varroa jacobsoni [4],best product against both mites
same,Fallen mites,"varroa mites [5]; 10 μl sugar solution fed per bee, 30 bees, total mites 35",34
same,Mortality rate in % (mites),varroa mites [5]; 10 μl sugar solution fed per bee,97%
same,killing of parasitizing mites,varroa mites [5]; feeding method in the laboratory,killing nearly all of the parasitizing mites
same,comparative efficacy against Tropilaelaps clareae,Tropilaelaps clareae,best product against both mites
same,Killed organisms in %: bees,"bees [6]; 0.5% aqueous solution, 5 ml dropped, three times at 4-day intervals, 12 days, natural mortality about 0.5% expected",0.4%
same,mortality of the bees during the test,bees [6]; compared with expected range and untreated control group,exactly within the expected range and does not differ from the mortality of the untreated control group
same,Killed organisms in %: mites,varroa mites [7],91.8%
same,mortality of the treated bees,bees [8],about 1%
Cc1cccc(C)c1N=c1sccn1C [Compound (B)],LD50 in μg active ingredient/bee,Varroa jacobsoni [3]; 24 hours after application,28 μg active ingredient/bee
same,LD50 in μg active ingredient/bee,Varroa jacobsoni [3]; 48 hours after application,28 μg active ingredient/bee
